# Assays:
# Type in all cases: in vivo
# [1] = system: Wheat; experiment: Pre-emergence treatment, phytotoxicity to wheat; conditions: 500 g/ha, 4 weeks after spraying, scale 0 to 10 (0: no effects, 10: complete death)
# Protocol: (§1) A rectangular plastic pot having a surface area of 300 cm^2 was filled with sandy loam soil and mixed bed soil which were mixed at a ratio of 1:1, and then, barnyardrass (Echinochloa crusgalli), large crabgrass (Digitaria sanguinalis), blackgrass (Alopecurus myosuroides), and annual bluegrass (Poa annua), which are grass weeds, were seeded thereto. In a pot that was prepared as described above, seeds of corn, soybean, cotton, wheat, and rice were seeded. The pots were irrigated, and one day after, chemicals were sprayed thereto. The spraying was performed by using a track sprayer (R&D Sprayer, USA) equipped with a Teejet 8002 (Spraying Systems Co., USA) nozzle, and a spraying amount was adjusted at 300 L/ha. A spraying solution was prepared by dissolving test materials or references in acetone and adding the same amount of 0.2%(v/v) tween 20 aqueous solution thereto. Application rates were 500, 250, 125, and 62.5 g/ha. The pots were placed in a greenhouse in which during day, the temperature was maintained at a temperature of 25 to 30° C., and during night, the temperature was maintained at a temperature of 15 to 25° C., and the pots were periodically irrigated. Four weeks after the spraying the test materials or References, effects and phytotoxicity of the respective weeds and crops were evaluated in a scale of 0 to 10 (0: no effects, 10: complete death), and results thereof are shown in Table 4 below.
# [2] = system: Soybean; experiment: Post-emergence treatment, phytotoxicity to soybean; conditions: post-emergence (about 3 leaf stage), 1,000 g/ha, 4 weeks after spraying, scale 0 to 10 (0: no effects, 10: complete death)
# Protocol: as §1
# (§2) Pots containing crops and weeds were prepared in the same manner as in Example 7, and then, in the second week in which crops and weeds entered into about 3 leaf stage, the test materials and the references were sprayed thereto in the same manner as described above. The rates were 1,000, 500, 250, and 125 g/ha. Four weeks after the spraying of the test materials or the references, herbicidal efficacy and phytotoxicity to the respective weeds and crops were evaluated in a scale of 0 to 10 (0: no effects, 10: complete death).
# [3] = system: Alopecurus myosuroides; experiment: Pre-emergence treatment, herbicidal efficacy on blackgrass; conditions: 4 weeks after spraying, scale 0 to 10
# Protocol: as §1
# [4] = system: Soybean; experiment: Pre-emergence treatment, phytotoxicity to soybean; conditions: 500 g/ha, 4 weeks after spraying, scale 0 to 10 (0: no effects, 10: complete death)
# Protocol: as §1
# [5] = system: Cotton; experiment: Pre-emergence treatment, phytotoxicity to cotton; conditions: 500 g/ha, 4 weeks after spraying, scale 0 to 10 (0: no effects, 10: complete death)
# Protocol: as §1
# [6] = system: Alopecurus myosuroides; experiment: Post-emergence treatment, herbicidal efficacy on blackgrass; conditions: 4 weeks after spraying, scale 0 to 10
# Protocol: as §1, §2
# [7] = system: Digitaria sanguinalis; experiment: Post-emergence treatment, herbicidal efficacy on large crabgrass; conditions: 4 weeks after spraying, scale 0 to 10
# Protocol: as §1, §2
# [8] = system: Echinochloa crusgalli; experiment: Pre-emergence treatment, herbicidal efficacy on barnyardgrass; conditions: 4 weeks after spraying
# Protocol: as §1
# [9] = system: Corn; experiment: Pre-emergence treatment, phytotoxicity to corn; conditions: 500 g/ha, 4 weeks after spraying, scale 0 to 10 (0: no effects, 10: complete death)
# Protocol: as §1
# [10] = system: Rice; experiment: Post-emergence treatment, phytotoxicity to rice; conditions: post-emergence (about 3 leaf stage), 1,000 g/ha, 4 weeks after spraying, scale 0 to 10 (0: no effects, 10: complete death)
# Protocol: as §1, §2
# [11] = system: Echinochloa crusgalli; experiment: Post-emergence treatment, herbicidal efficacy on barnyardgrass; conditions: 4 weeks after spraying, scale 0 to 10
# Protocol: as §1, §2
# [12] = system: Digitaria sanguinalis; experiment: Pre-emergence treatment, herbicidal efficacy on large crabgrass; conditions: 4 weeks after spraying, scale 0 to 10
# Protocol: as §1
# [13] = system: Corn; experiment: Post-emergence treatment, phytotoxicity to corn; conditions: post-emergence (about 3 leaf stage), 1,000 g/ha, 4 weeks after spraying, scale 0 to 10 (0: no effects, 10: complete death)
# Protocol: as §1, §2
# [14] = system: Poa annua; experiment: Pre-emergence treatment, herbicidal efficacy on annual bluegrass; conditions: 4 weeks after spraying, scale 0 to 10
# Protocol: as §1
# [15] = system: Cotton; experiment: Post-emergence treatment, phytotoxicity to cotton; conditions: post-emergence (about 3 leaf stage), 1,000 g/ha, 4 weeks after spraying, scale 0 to 10 (0: no effects, 10: complete death)
# Protocol: as §1, §2
# [16] = system: Rice; experiment: Pre-emergence treatment, phytotoxicity to rice; conditions: 500 g/ha, 4 weeks after spraying, scale 0 to 10 (0: no effects, 10: complete death)
# Protocol: as §1
# [17] = system: Poa annua; experiment: Post-emergence treatment, herbicidal efficacy on annual bluegrass; conditions: 4 weeks after spraying, scale 0 to 10
# Protocol: as §1, §2
# [18] = system: Wheat; experiment: Post-emergence treatment, phytotoxicity to wheat; conditions: post-emergence (about 3 leaf stage), 1,000 g/ha, 4 weeks after spraying, scale 0 to 10 (0: no effects, 10: complete death)
# Protocol: as §1, §2
# [19] = 500 g/ha, scale 0 to 10 (0: no effects, 10: complete death)
smiles,measurement,setting,value
Cc1ccccc1C1=NOC(C)(COCc2ccccc2F)C1 (stereo not drawn) [Reference D],"Phytotoxicity, Wheat",[1],0
same,"Phytotoxicity, Soybean",[2],0
same,"Herbicidal efficacy, Alopecurus myosuroides",[3]; 62.5 g/ha,0
same,"Herbicidal efficacy, Alopecurus myosuroides",[3]; 125 g/ha,0
same,"Herbicidal efficacy, Alopecurus myosuroides",[3]; 250 g/ha,3
same,"Herbicidal efficacy, Alopecurus myosuroides",[3]; 500 g/ha,9
same,"Phytotoxicity, Soybean",[4],0
same,"Phytotoxicity, Cotton",[5],0
same,"Herbicidal efficacy, Alopecurus myosuroides","[6]; post-emergence, 125 g/ha",0
same,"Herbicidal efficacy, Alopecurus myosuroides","[6]; post-emergence, 250 g/ha",0
same,"Herbicidal efficacy, Alopecurus myosuroides","[6]; post-emergence, 500 g/ha",3
same,"Herbicidal efficacy, Alopecurus myosuroides","[6]; post-emergence, 1,000 g/ha",4
same,"Herbicidal efficacy, Digitaria sanguinalis","[7]; post-emergence, 125 g/ha",0
same,"Herbicidal efficacy, Digitaria sanguinalis","[7]; post-emergence, 250 g/ha",0
same,"Herbicidal efficacy, Digitaria sanguinalis","[7]; post-emergence, 500 g/ha",4
same,"Herbicidal efficacy, Digitaria sanguinalis","[7]; post-emergence, 1,000 g/ha",7
same,"Herbicidal efficacy, Echinochloa crusgalli","[8]; 62.5 g/ha, scale 0 to 10",1
same,"Herbicidal efficacy, Echinochloa crusgalli","[8]; 125 g/ha, scale 0 to 10",3
same,"Herbicidal efficacy, Echinochloa crusgalli","[8]; 250 g/ha, scale 0 to 10",6
same,"Herbicidal efficacy, Echinochloa crusgalli",[8]; [19],10
same,"Phytotoxicity, Corn",[9],0
same,"Phytotoxicity, Rice",[10],0
same,"Herbicidal efficacy, Echinochloa crusgalli","[11]; post-emergence, 125 g/ha",0
same,"Herbicidal efficacy, Echinochloa crusgalli","[11]; post-emergence, 250 g/ha",0
same,"Herbicidal efficacy, Echinochloa crusgalli","[11]; post-emergence, 500 g/ha",1
same,"Herbicidal efficacy, Echinochloa crusgalli","[11]; post-emergence, 1,000 g/ha",4
same,"Herbicidal efficacy, Digitaria sanguinalis",[12]; 62.5 g/ha,0
same,"Herbicidal efficacy, Digitaria sanguinalis",[12]; 125 g/ha,2
same,"Herbicidal efficacy, Digitaria sanguinalis",[12]; 250 g/ha,6
same,"Herbicidal efficacy, Digitaria sanguinalis",[12]; 500 g/ha,10
same,"Phytotoxicity, Corn",[13],0
same,"Herbicidal efficacy, Poa annua",[14]; 62.5 g/ha,0
same,"Herbicidal efficacy, Poa annua",[14]; 125 g/ha,2
same,"Herbicidal efficacy, Poa annua",[14]; 250 g/ha,5
same,"Herbicidal efficacy, Poa annua",[14]; 500 g/ha,8
same,"Phytotoxicity, Cotton",[15],0
same,"Phytotoxicity, Rice",[16],0
same,"Herbicidal efficacy, Poa annua","[17]; post-emergence, 125 g/ha",0
same,"Herbicidal efficacy, Poa annua","[17]; post-emergence, 250 g/ha",0
same,"Herbicidal efficacy, Poa annua","[17]; post-emergence, 500 g/ha",2
same,"Herbicidal efficacy, Poa annua","[17]; post-emergence, 1,000 g/ha",5
same,"Phytotoxicity, Wheat",[18],0
CC1(COCc2c(F)cccc2Cl)CC(c2ccccc2)=NO1 (stereo not drawn) [Reference H],"Phytotoxicity, Wheat",[1],0
same,"Phytotoxicity, Soybean",[2],0
same,"Herbicidal efficacy, Alopecurus myosuroides",[3]; 62.5 g/ha,0
same,"Herbicidal efficacy, Alopecurus myosuroides",[3]; 125 g/ha,0
same,"Herbicidal efficacy, Alopecurus myosuroides",[3]; 250 g/ha,2
same,"Herbicidal efficacy, Alopecurus myosuroides",[3]; 500 g/ha,9
same,"Phytotoxicity, Soybean",[4],0
same,"Phytotoxicity, Cotton",[5],0
same,"Herbicidal efficacy, Alopecurus myosuroides","[6]; post-emergence, 125 g/ha",0
same,"Herbicidal efficacy, Alopecurus myosuroides","[6]; post-emergence, 250 g/ha",0
same,"Herbicidal efficacy, Alopecurus myosuroides","[6]; post-emergence, 500 g/ha",0
same,"Herbicidal efficacy, Alopecurus myosuroides","[6]; post-emergence, 1,000 g/ha",0
same,"Herbicidal efficacy, Digitaria sanguinalis","[7]; post-emergence, 125 g/ha",0
same,"Herbicidal efficacy, Digitaria sanguinalis","[7]; post-emergence, 250 g/ha",0
same,"Herbicidal efficacy, Digitaria sanguinalis","[7]; post-emergence, 500 g/ha",1
same,"Herbicidal efficacy, Digitaria sanguinalis","[7]; post-emergence, 1,000 g/ha",5
same,"Herbicidal efficacy, Echinochloa crusgalli","[8]; 62.5 g/ha, scale 0 to 10",0
same,"Herbicidal efficacy, Echinochloa crusgalli","[8]; 125 g/ha, scale 0 to 10",0
same,"Herbicidal efficacy, Echinochloa crusgalli","[8]; 250 g/ha, scale 0 to 10",2
same,"Herbicidal efficacy, Echinochloa crusgalli",[8]; [19],9
same,"Phytotoxicity, Corn",[9],2
same,"Phytotoxicity, Rice",[10],0
same,"Herbicidal efficacy, Echinochloa crusgalli","[11]; post-emergence, 125 g/ha",0
same,"Herbicidal efficacy, Echinochloa crusgalli","[11]; post-emergence, 250 g/ha",0
same,"Herbicidal efficacy, Echinochloa crusgalli","[11]; post-emergence, 500 g/ha",0
same,"Herbicidal efficacy, Echinochloa crusgalli","[11]; post-emergence, 1,000 g/ha",4
same,"Herbicidal efficacy, Digitaria sanguinalis",[12]; 62.5 g/ha,0
same,"Herbicidal efficacy, Digitaria sanguinalis",[12]; 125 g/ha,0
same,"Herbicidal efficacy, Digitaria sanguinalis",[12]; 250 g/ha,2
same,"Herbicidal efficacy, Digitaria sanguinalis",[12]; 500 g/ha,10
same,"Phytotoxicity, Corn",[13],0
same,"Herbicidal efficacy, Poa annua",[14]; 62.5 g/ha,0
same,"Herbicidal efficacy, Poa annua",[14]; 125 g/ha,0
same,"Herbicidal efficacy, Poa annua",[14]; 250 g/ha,2
same,"Herbicidal efficacy, Poa annua",[14]; 500 g/ha,8
same,"Phytotoxicity, Cotton",[15],0
same,"Phytotoxicity, Rice",[16],0
same,"Herbicidal efficacy, Poa annua","[17]; post-emergence, 125 g/ha",0
same,"Herbicidal efficacy, Poa annua","[17]; post-emergence, 250 g/ha",0
same,"Herbicidal efficacy, Poa annua","[17]; post-emergence, 500 g/ha",2
same,"Herbicidal efficacy, Poa annua","[17]; post-emergence, 1,000 g/ha",4
same,"Phytotoxicity, Wheat",[18],0
CC1(COCc2ccccc2F)CC(c2ccccc2[N+](=O)[O-])=NO1 (stereo not drawn) [Reference A],"Phytotoxicity, Wheat",[1],0
same,"Phytotoxicity, Soybean",[2],1
same,"Herbicidal efficacy, Alopecurus myosuroides",[3]; 62.5 g/ha,0
same,"Herbicidal efficacy, Alopecurus myosuroides",[3]; 125 g/ha,0
same,"Herbicidal efficacy, Alopecurus myosuroides",[3]; 250 g/ha,3
same,"Herbicidal efficacy, Alopecurus myosuroides",[3]; 500 g/ha,10
same,"Phytotoxicity, Soybean",[4],0
same,"Phytotoxicity, Cotton",[5],0
same,"Herbicidal efficacy, Alopecurus myosuroides","[6]; post-emergence, 125 g/ha",0
same,"Herbicidal efficacy, Alopecurus myosuroides","[6]; post-emergence, 250 g/ha",0
same,"Herbicidal efficacy, Alopecurus myosuroides","[6]; post-emergence, 500 g/ha",0
same,"Herbicidal efficacy, Alopecurus myosuroides","[6]; post-emergence, 1,000 g/ha",2
same,"Herbicidal efficacy, Digitaria sanguinalis","[7]; post-emergence, 125 g/ha",0
same,"Herbicidal efficacy, Digitaria sanguinalis","[7]; post-emergence, 250 g/ha",1
same,"Herbicidal efficacy, Digitaria sanguinalis","[7]; post-emergence, 500 g/ha",4
same,"Herbicidal efficacy, Digitaria sanguinalis","[7]; post-emergence, 1,000 g/ha",5
same,"Herbicidal efficacy, Echinochloa crusgalli","[8]; 62.5 g/ha, scale 0 to 10",0
same,"Herbicidal efficacy, Echinochloa crusgalli","[8]; 125 g/ha, scale 0 to 10",2
same,"Herbicidal efficacy, Echinochloa crusgalli","[8]; 250 g/ha, scale 0 to 10",6
same,"Herbicidal efficacy, Echinochloa crusgalli",[8]; [19],10
same,"Phytotoxicity, Corn",[9],0
same,"Phytotoxicity, Rice",[10],0
same,"Herbicidal efficacy, Echinochloa crusgalli","[11]; post-emergence, 125 g/ha",0
same,"Herbicidal efficacy, Echinochloa crusgalli","[11]; post-emergence, 250 g/ha",2
same,"Herbicidal efficacy, Echinochloa crusgalli","[11]; post-emergence, 500 g/ha",5
same,"Herbicidal efficacy, Echinochloa crusgalli","[11]; post-emergence, 1,000 g/ha",7
same,"Herbicidal efficacy, Digitaria sanguinalis",[12]; 62.5 g/ha,0
same,"Herbicidal efficacy, Digitaria sanguinalis",[12]; 125 g/ha,2
same,"Herbicidal efficacy, Digitaria sanguinalis",[12]; 250 g/ha,6
same,"Herbicidal efficacy, Digitaria sanguinalis",[12]; 500 g/ha,10
same,"Phytotoxicity, Corn",[13],0
same,"Herbicidal efficacy, Poa annua",[14]; 62.5 g/ha,0
same,"Herbicidal efficacy, Poa annua",[14]; 125 g/ha,2
same,"Herbicidal efficacy, Poa annua",[14]; 250 g/ha,5
same,"Herbicidal efficacy, Poa annua",[14]; 500 g/ha,9
same,"Phytotoxicity, Cotton",[15],0
same,"Phytotoxicity, Rice",[16],0
same,"Herbicidal efficacy, Poa annua","[17]; post-emergence, 125 g/ha",0
same,"Herbicidal efficacy, Poa annua","[17]; post-emergence, 250 g/ha",0
same,"Herbicidal efficacy, Poa annua","[17]; post-emergence, 500 g/ha",3
same,"Herbicidal efficacy, Poa annua","[17]; post-emergence, 1,000 g/ha",5
same,"Phytotoxicity, Wheat",[18],0
